ChEMBL document CHEMBL1134929, “Synthesis and biological activity of potent heterocyclic thiol-based inhibitors of endothelin-converting enzyme-1” (Bioorg Med Chem Lett, 2002)
Values belong to the compound of their own block, whether it stands above or below them.

Key:
[1] = tested on: Rattus norvegicus; assay: Compound was evaluated for its ability to inhibit the Endothelin 1 induced pressor response in anesthetized rats upon oral administration of 3 mg/kg at 0.5 hr post dosing; type: functional
[2] = tested on: Rattus norvegicus; assay: Compound was evaluated for its ability to inhibit the Endothelin 1 induced pressor response in anesthetized rats upon oral administration of 3 mg/kg at 8 hr post dosing; type: functional
[3] = tested on: Rattus norvegicus; assay: Compound was evaluated for its ability to inhibit the Endothelin 1 induced pressor response in rats upon oral administration of 3-30 mg/kg at 2 hr post dosing; type: functional
[4] = tested on: Rattus norvegicus; assay: Compound was evaluated for its ability to inhibit the Endothelin 1 induced pressor response in anesthetized rats upon oral administration of 3 mg/kg at 2 hr post dosing; type: functional
[5] = tested on: Rattus norvegicus; assay: Compound was evaluated for its ability to inhibit the Endothelin 1 induced pressor response in anesthetized rats iupon oral administration of 3 mg/kg at 4 hr post dosing; type: functional
[6] = target: T1, Endothelin-converting enzyme 1 (Homo sapiens, UniProt P42892); assay: In vitro inhibition of Endothelin-converting enzyme 1.
T1 sequence (P42892 whole entry): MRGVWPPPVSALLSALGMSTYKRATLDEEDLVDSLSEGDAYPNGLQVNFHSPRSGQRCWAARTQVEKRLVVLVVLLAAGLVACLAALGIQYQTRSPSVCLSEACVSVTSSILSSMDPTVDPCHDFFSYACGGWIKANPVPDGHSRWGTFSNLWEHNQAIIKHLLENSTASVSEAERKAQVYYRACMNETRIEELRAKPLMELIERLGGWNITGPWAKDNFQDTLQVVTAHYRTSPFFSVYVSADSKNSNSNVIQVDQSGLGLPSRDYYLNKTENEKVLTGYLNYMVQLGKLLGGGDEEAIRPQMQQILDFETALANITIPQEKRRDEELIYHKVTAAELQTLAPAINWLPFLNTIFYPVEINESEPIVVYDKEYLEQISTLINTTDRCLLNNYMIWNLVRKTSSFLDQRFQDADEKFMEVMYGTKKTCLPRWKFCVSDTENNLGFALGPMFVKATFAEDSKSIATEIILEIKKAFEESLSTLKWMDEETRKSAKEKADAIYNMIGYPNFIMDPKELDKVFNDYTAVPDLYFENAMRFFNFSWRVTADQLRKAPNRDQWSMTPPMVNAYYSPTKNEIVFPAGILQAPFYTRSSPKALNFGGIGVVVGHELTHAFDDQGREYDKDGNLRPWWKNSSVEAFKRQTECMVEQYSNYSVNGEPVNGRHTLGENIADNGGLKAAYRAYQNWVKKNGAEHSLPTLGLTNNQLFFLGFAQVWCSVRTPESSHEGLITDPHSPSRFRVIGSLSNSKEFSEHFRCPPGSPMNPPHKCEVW

[7] = tested on: Rattus norvegicus; assay: Compound was evaluated for its ability to inhibit Endothelin 1 induced increase in mean arterial pressure (MAP) after 15 min of dosing (20 mg/kg) in rats.; type: functional, Artery
[8] = tested on: Rattus norvegicus; assay: Compound was evaluated for its ability to inhibit the Endothelin 1 induced pressor response in anesthetized rats intravenous administration of 10 mg/kg; type: functional

Structure (SMILES): COC(=O)[C@H](Cc1ccc(-c2cccs2)nc1)NC(=O)C1(NC(=O)[C@H](CC(C)C)SC(C)=O)CCCC1
- inhibition in vivo at 3 mg/kg [1]: 90%
- inhibition in vivo at 3 mg/kg [2]: 34%
- Inhibition [3]: 65%
- inhibition in vivo at 3 mg/kg [4]: 82%
- inhibition in vivo at 3 mg/kg [5]: 70%

- IC50 [6]: 64 nM
Structure (SMILES): CC(C)[C@H](S)C(=O)NC1(C(=O)NC(Cc2ccc(-c3cccc(N)c3)nc2)C(=O)O)CCCC1 (stereo partly specified)

- IC50 [6]: 39 nM
Structure (SMILES): CC(C)[C@H](S)C(=O)NC1(C(=O)NC(Cc2ccc(-c3ccoc3)nc2)C(=O)O)CCCC1 (stereo partly specified)

- IC50 [6]: 9.5 nM
Structure (SMILES): CC(C)C[C@H](S)C(=O)NC1(C(=O)N[C@@H](Cc2ccc(-c3cccs3)nc2)C(=O)O)CCCC1
- Increase in MAP [7]: 77%
- inhibition in vivo at 10 mg/kg [8]: 61%

Structure (SMILES): CC(C)[C@H](S)C(=O)NC1(C(=O)N[C@@H](Cc2ccc(-c3ccccc3)cc2)C(=O)O)CCCC1
- inhibition in vivo at 10 mg/kg [8]: 40%
